Measurements: patent US20120064056A1, “DICHLORACETATE IN COMBINATION WITH CLINICALLY HIGH LEVELS OF CARDIOPROTECTIVE OR HEMODYNAMIC DRUGS” (THE GOVERNORS OF THE UNIVERSITY OF ALBERTA TEC Edmonton, priority 2002, published 2012)
“And” between values parts separate entries of the source, which are not always exact repeats. Equal entries are not always repeated.

Experiments:
[1] = test system: isolated rat hearts subjected to global ischemia; assay: Isolated working rat heart, global no flow ischemia and reperfusion: cardiac function and efficiency; settings: for Aortic Outflow / Cardiac Output / Coronary Flow / HR × PSP / Heart Rate / Peak Systolic Pressure: post-ischemic reperfusion, DCA 2 mM, digoxin 3 nM, metoprolol 1 μM
Description: (§1) Hearts were trimmed of excess tissue, and the pulmonary artery and the opening to the left atrium were then cannulated. After 15 min of Langendorff perfusion, hearts were switched to the working mode by clamping the aortic inflow line from the Langendorff reservoir and opening the left atrial inflow line. The perfusate was delivered from an oxygenator into the left atrium at a constant preload pressure of 11 mm Hg. […] The afterload was set at a hydrostatic pressure of 80 mm Hg. […] Palmitate was bound to the albumin as described previously ([…]., et al. J Biol. Chem. 267:3825-3831 (1992)). […] For the aerobic model hearts, all tested compounds were introduced into the heart 5 minutes into the working mode following Langendorff Perfusion. Spontaneously beating hearts were used in all perfusions. Heart rate and aortic pressure were measured with a Biopac Systems Inc. blood pressure transducer connected to the aortic outflow line. Cardiac output and aortic flow were measured with Transonic […] ultrasonic flow probes in the preload and afterload lines, respectively. Coronary flow was calculated as the difference between cardiac output and aortic flow. […] Cardiac work was calculated as the product of systolic pressure and cardiac output. Cardiac efficiency was defined as a ratio of cardiac work to MVO2. […] All tested compounds were introduced into the perfusate five minutes prior to reperfusion.

[2] = test system: isolated rat hearts; assay: Isolated working rat heart, aerobic perfusion: glycolysis and glucose oxidation; set-up: glycolytic rates (glycolysis) / glucose oxidation rates: unit not given here; settings: for glucose oxidation rates / glycolytic rates (glycolysis): normal hearts, aerobic, DCA 2 mM, digoxin 3 nM, diltiazem 0.8 μM, dobutamine 1 μM, metoprolol 1 μM; for glucose oxidation rates: FIG. 1, 3, 5, 7, control 361±43; for glycolytic rates (glycolysis): FIG. 2, 4, 6, 8, control 3.430±0.604
Description: (§2) Rat hearts were cannulated for isolated working heart perfusions as described in “An imbalance between glycolysis and glucose oxidation is a possible explanation for the detrimental effects of high levels of fatty acids during aerobic reperfusion of ischemic hearts.”, (J Pharmacol Exp Ther. 264:135 (1993); herein incorporated by reference. In brief, male Sprague-Dawley rats (0.3-0.35 kg) were anesthetized with pentobarbital sodium (60 mg/kg IP) and hearts were quickly excised, the aorta was cannulated and a retrograde perfusion at 37° C. was initiated at a hydrostatic pressure of 60 mm Hg. Hearts were trimmed of excess tissue, and the pulmonary artery and the opening to the left atrium were then cannulated. After 15 min of Langendorff perfusion, hearts were switched to the working mode by clamping the aortic inflow line from the Langendorff reservoir and opening the left atrial inflow line. The perfusate was delivered from an oxygenator into the left atrium at a constant preload pressure of 11 mm Hg. Perfusate was ejected from spontaneously beating hearts into a compliance chamber (containing 1 ml of air) and into the aortic outflow line. The afterload was set at a hydrostatic pressure of 80 mm Hg. All working hearts were perfused with Krebs'-Henseleit solution containing calcium 2.5 mmol/L, glucose 5.5 mmol/L, 3% bovine serum albumin (Fraction V, Boehringer Mannheim), and with 1.2 mmol/L palmitate. Palmitate was bound to the albumin as described previously (Saddik M., et al. J Biol. Chem. 267:3825-3831 (1992)). The perfusate was recirculated, and pH was adjusted to 7.4 by bubbling with a mixture containing 95% O2 and 5% CO2. For the aerobic model hearts, all tested compounds were introduced into the heart 5 minutes into the working mode following Langendorff Perfusion.
Glycolysis and glucose oxidation were measured simultaneously by perfusing hearts with [5-^3H/U-^14C] glucose (Liu H., et al. Am J Physiol. 270:H72-H80 (1996); Taegtmeyer Het al. Am J Cardiol. 80:3A-10A (1997)). The total myocardial ^3H2O production and ^14CO2 production were determined at 10 minute intervals for the entirety of the aerobic period, 60 minutes for normal hearts and 30 minutes for the global ischemia and low flow demand ischemia models. In the global ischemia model, the total myocardial ^3H2O and ^14CO2 production were determined at 20 minute intervals for the 60 minute reperfusion period. In the low flow demand ischemia model, the total myocardial ^3H2O and ^14CO2 production were determined at 10 minute intervals for the 30 minute reperfusion period. Glucose oxidation rates were determined by quantitative measurement of ^14CO2 production as described previously (Barbour R. L., et al. Biochemistr. 1923:6503-6062 (1984)).

[3] = test system: isolated rat hearts subjected to low flow demand ischemia; assay: Isolated working rat heart, low flow demand ischemia: cardiac function and efficiency; settings: DCA 2 mM, diltiazem 0.8 μM, metoprolol 1 μM
Description: as §1, with “into initiation of aerobic perfusion.” for “prior to reperfusion.”

[4] = test system: isolated rat hearts; assay: Isolated working rat heart, aerobic perfusion: cardiac function and efficiency; set-up: Cardiac Work (CO · PSP): unit not given beside the values; settings: for Aortic Outflow / Cardiac Efficiency (CW · O2^−1) / Cardiac Output / Cardiac Work (CO · PSP) / Coronary Flow / HR × PSP / Heart Rate / O2 Consumption / Peak Systolic Pressure: aerobically perfused, DCA 2 mM, diltiazem 0.8 μM, digoxin 3 nM, metoprolol 1 μM, dobutamine 1 μM; for effect on functional parameters shown in Table 2 incl. O2 consumption and cardiac efficiency, in words / effect on functional parameters shown in Table 1 (heart rate, peak systolic pressure, HR×PSP), in words: normal hearts, aerobic; for effect on functional parameters shown in Table 2 incl. O2 consumption and cardiac efficiency, in words: compared to control; for effect on functional parameters shown in Table 1 (heart rate, peak systolic pressure, HR×PSP), in words: compared to control (DCA and dobutamine: compared to dobutamine alone)
Description: as §2
Spontaneously beating hearts were used in all perfusions. Heart rate and aortic pressure were measured with a Biopac Systems Inc. blood pressure transducer connected to the aortic outflow line. Cardiac output and aortic flow were measured with Transonic T206 ultrasonic flow probes in the preload and afterload lines, respectively. Coronary flow was calculated as the difference between cardiac output and aortic flow. The O2 contents of the perfusate entering and leaving the heart were measured using YSI™ micro oxygen electrodes placed in the preload and pulmonary arterial lines, respectively. Myocardial O2 consumption (MVO2) was calculated according to the Fick principle, using coronary flow rates and the arteriovenous difference in perfusate O2 concentration. Cardiac work was calculated as the product of systolic pressure and cardiac output. Cardiac efficiency was defined as a ratio of cardiac work to MVO2.

[5] = test system: isolated rat hearts subjected to global ischemia; assay: Isolated working rat heart, global ischemia and reperfusion: glycolysis and glucose oxidation; settings: FIG. 10, FIG. 16, DCA 2 mM, digoxin 3 nM, metoprolol 1 μM
Description: Hearts were trimmed of excess tissue, and the pulmonary artery and the opening to the left atrium were then cannulated. After 15 min of Langendorff perfusion, hearts were switched to the working mode by clamping the aortic inflow line from the Langendorff reservoir and opening the left atrial inflow line. The perfusate was delivered from an oxygenator into the left atrium at a constant preload pressure of 11 mm Hg. […] The afterload was set at a hydrostatic pressure of 80 mm Hg. […] Palmitate was bound to the albumin as described previously ([…]., et al. J Biol. Chem. 267:3825-3831 (1992)). […] For the aerobic model hearts, all tested compounds were introduced into the heart 5 minutes into the working mode following Langendorff Perfusion. […] All tested compounds were introduced into the perfusate five minutes prior to reperfusion. […] Am J Physiol. 270:[…]. Am J Cardiol. 80:3A-10A (1997)). […] In the global ischemia model, the total myocardial ^3H2O and ^14CO2 production were determined at 20 minute intervals for the 60 minute reperfusion period. […] L., et al. Biochemistr. 1923:6503-6062 (1984)).

[6] = low flow ischemia: aerobic period
[7] = low flow ischemia: ischemic period

| SMILES | Aortic Outflow [1] | Cardiac Output [1] | Coronary Flow [1] | HR × PSP [1] | Heart Rate [1] | Peak Systolic Pressure [1] | glucose oxidation rates [2] | glycolytic rates (glycolysis) [2] | Aortic Outflow [4] | Cardiac Efficiency (CW · O2^−1) [4] | Cardiac Output [4] | Cardiac Work (CO · PSP) [4] | Coronary Flow [4] | HR × PSP [4] | Heart Rate [4] | O2 Consumption [4] | Peak Systolic Pressure [4] | effect on functional parameters shown in Table 2 incl. O2 consumption and cardiac efficiency, in words [4] | effect on functional parameters shown in Table 1 (heart rate, peak systolic pressure, HR×PSP), in words [4] | also measured |
| --- | --- | --- | --- | --- | --- | --- | --- | --- | --- | --- | --- | --- | --- | --- | --- | --- | --- | --- | --- | --- |
| O=C(O)C(Cl)Cl [DCA, dichloroacetate] | 14 ± 6 mL/min | 35 ± 5 mL/min | 21 ± 1 mL/min | 18 ± 2 beats · min^−1 · mmHg · 10^−2 | 208 ± 11 beats · min^−1 | 87 ± 9 mmHg | 1697±179 and 1526±79 | 8.917±3.060 | 30 ± 3 mL/min | 1.69 ± 0.19 | 49 ± 4 mL/min | 61 ± 5 | 20 ± 1 mL/min | 32 ± 1 beats · min^−1 · mmHg · 10^−2 | 239 ± 8 beats · min^−1 | 38 ± 5 μmolO2 · g dry wt^−1 · min^−1 | 125 ± 3 mmHg | no effect | no significant effect | increase in glucose oxidation ([2]; aerobic model): over 400%; increase in glycolysis ([2]; aerobic model): over 300%; Aortic Outflow [3, 6]: 27 ± 3 mL/min; Cardiac Output [3, 6]: 50 ± 2 mL/min; Coronary Flow [3, 6]: 22 ± 1 mL/min; HR × PSP [3, 6]: 30 ± 1 beats · min^−1 · mmHg · 10^−2; Heart Rate [3, 6]: 214 ± 7 beats · min^−1; Peak Systolic Pressure [3, 6]: 139 ± 3 mmHg; Aortic Outflow [3, 7]: 13 ± 5 mL/min; Cardiac Output [3, 7]: 26 ± 5 mL/min; Coronary Flow [3, 7]: 13 ± 1 mL/min; HR × PSP [3, 7]: 30 ± 1 beats · min^−1 · mmHg · 10^−2; Heart Rate [3, 7]: 214 ± 7 beats · min^−1; Peak Systolic Pressure [3, 7]: 139 ± 3 mmHg |
| C[C@H]1O[C@@H](O[C@H]2[C@@H](O)C[C@H](O[C@H]3[C@@H](O)C[C@H](O[C@H]4CC[C@@]5(C)[C@H](CC[C@@H]6[C@@H]5C[C@@H](O)[C@]5(C)[C@@H](C7=CC(=O)OC7)CC[C@]65O)C4)O[C@@H]3C)O[C@@H]2C)C[C@H](O)[C@@H]1O [Digoxin, digoxin] | 14 ± 3 mL/min | 34 ± 3 mL/min | 20 ± 1 mL/min | 19 ± 2 beats · min^−1 · mmHg · 10^−2 | 207 ± 12 beats · min^−1 | 93 ± 6 mmHg |  | 5.651±1.298 | 31 ± 1 mL/min |  | 52 ± 1 mL/min | 67 ± 3 | 21 ± 1 mL/min | 32 ± 1 beats · min^−1 · mmHg · 10^−2 | 258 ± 11 beats · min^−1 | 37 ± 3 μmolO2 · g dry wt^−1 · min^−1 | 129 ± 4 mmHg |  | no significant effect | recovery of cardiac function of previously ischemic hearts compared to control, in words ([1]; reperfusion period, FIG. 11, FIG. 17): significantly improves the recovery; recovery of cardiac work of previously ischemic hearts compared to control, in words ([1]; reperfusion period, FIG. 12, FIG. 18): significantly improve the recovery; recovery of oxygen consumption of previously ischemic hearts, in words ([1]; reperfusion period, FIG. 13, FIG. 19): significantly improve the recovery; glycolytic rates as compared to control, in words [5]: neither DCA, digoxin, nor digoxin with DCA altered glycolytic rates; Aortic Outflow ([4]; listed as digoxin): 31 ± 1 mL/min; Cardiac Work (CO · PSP) ([4]; listed as digoxin): 67±3 |
| CC(CCc1ccc(O)cc1)NCCc1ccc(O)c(O)c1 (stereo not shown) [Dobutamine, dobutamine] |  |  |  |  |  |  | 1707±435 | 13.365±1.981 | 32 ± 3 mL/min | 1.56 ± 0.43 | 52 ± 2 mL/min | 64 ± 5 | 20 ± 4 mL/min | 40 ± 2 beats · min^−1 · mmHg · 10^−2 | 333 ± 7 beats · min^−1 | 44 ± 9 μmolO2 · g dry wt^−1 · min^−1 | 124 ± 3 mmHg | no significant effect |  | increase in glucose metabolism ([2]; aerobic model): ~400%; HR × PSP ([4]; listed as dobutamine): 40±2 beats · min^−1 · mmHg · 10^−2; Heart Rate ([4]; listed as dobutamine): 333±7 beats · min^−1 |
